Test system: non-adapted human Wuhan H3N2 strain
Format: in vivo
Settings: cotton rats

Q: With CCCCCC/C=C\CCCCCCCCCC(=O)N[C@H]1[C@H](OC[C@H]2O[C@H](OP(=O)(O)O)[C@H](NC(=O)CC(=O)CCCCCCCCCCC)[C@@H](OCCCCCCCCCC)[C@@H]2O)O[C@H](COC)[C@@H](OP(=O)(O)O)[C@@H]1OCC[C@@H](CCCCCCC)OC [eritoran, α-D-Glucopyranose, 3-O-decyl-2-deoxy-6-O-[2-deoxy-3-O-[(3R)-3-methoxydecyl)-6-O-methyl-2-[[(-11Z)-1-oxo-11-octadecenyl)amino]-4-O-phosphono-β-D-glucopyranosyl]-2-[(1,3-dioxotetradecyl)amino]-1-(dihydrogen phosphate)] as the molecule, how does the “lung expression of IL-6 and IL-10” value read?
A: Its value is “decreased lung expression of IL-6 and IL-10”.
